Source: US8192962B2, “Processes for detecting toxic substances” (Daikin Industries, Ltd., priority 2001, dated 2012)

Tested on: Unknown protein yeast genes
Test: DNA chip mRNA expression in yeast, unknown protein yeast genes (Table 1)
Type: cell-based, Saccharomyces cerevisiae S288C
Procedure, shortened: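 Chemical exposure: 2 h, log-phase S. cerevisiae S288C, YPD, 25° C., dose set to inhibit growth without death. Profiling: mRNA labeled by reverse transcription with Cy3- or Cy5-dUTP, hybridized to whole-genome array. Output: fluorescence ratio against untreated culture.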

## S=C([S-])NCCNC(=S)[S-].[Zn+2] [(11), zinc N,N′-ethylenebis(dithiocarbamate)]
Yeast gene YAL053W, incubated two hours with chemical substance
  The level of expressed mRNA in the presence of chemical substance/The level of expressed mRNA in the absence of chemical substance: 2.3
Yeast gene YBL048W
  The level of expressed mRNA in the presence of chemical substance/The level of expressed mRNA in the absence of chemical substance: 2.0
Yeast gene YBL107C
  The level of expressed mRNA in the presence of chemical substance/The level of expressed mRNA in the absence of chemical substance: 2.9
Yeast gene YDL072C, incubated two hours with chemical substance
  The level of expressed mRNA in the presence of chemical substance/The level of expressed mRNA in the absence of chemical substance: 1.4
Yeast gene YDL204W, incubated two hours with chemical substance
  The level of expressed mRNA in the presence of chemical substance/The level of expressed mRNA in the absence of chemical substance: 3.2
Yeast gene YDL222C, incubated two hours with chemical substance
  The level of expressed mRNA in the presence of chemical substance/The level of expressed mRNA in the absence of chemical substance: 2.6
Yeast gene YDR330W, incubated two hours with chemical substance
  The level of expressed mRNA in the presence of chemical substance/The level of expressed mRNA in the absence of chemical substance: 0.9
Yeast gene YDR391C, incubated two hours with chemical substance
  The level of expressed mRNA in the presence of chemical substance/The level of expressed mRNA in the absence of chemical substance: 1.9
Yeast gene YDR411C, incubated two hours with chemical substance
  The level of expressed mRNA in the presence of chemical substance/The level of expressed mRNA in the absence of chemical substance: 1.3
Yeast gene YDR511W, incubated two hours with chemical substance
  The level of expressed mRNA in the presence of chemical substance/The level of expressed mRNA in the absence of chemical substance: 1.2
Yeast gene YDR545W, incubated two hours with chemical substance
  The level of expressed mRNA in the presence of chemical substance/The level of expressed mRNA in the absence of chemical substance: 0.7
Yeast gene YEL001C, incubated two hours with chemical substance
  The level of expressed mRNA in the presence of chemical substance/The level of expressed mRNA in the absence of chemical substance: 1.2
Yeast gene YER004W, incubated two hours with chemical substance
  The level of expressed mRNA in the presence of chemical substance/The level of expressed mRNA in the absence of chemical substance: 2.2
Yeast gene YER035W, incubated two hours with chemical substance
  The level of expressed mRNA in the presence of chemical substance/The level of expressed mRNA in the absence of chemical substance: 1.4
Yeast gene YER079W, incubated two hours with chemical substance
  The level of expressed mRNA in the presence of chemical substance/The level of expressed mRNA in the absence of chemical substance: 2.1
Yeast gene YER106W, incubated two hours with chemical substance
  The level of expressed mRNA in the presence of chemical substance/The level of expressed mRNA in the absence of chemical substance: 1.0
Yeast gene YER158C, incubated two hours with chemical substance
  The level of expressed mRNA in the presence of chemical substance/The level of expressed mRNA in the absence of chemical substance: 2.3
Yeast gene YER163C, incubated two hours with chemical substance
  The level of expressed mRNA in the presence of chemical substance/The level of expressed mRNA in the absence of chemical substance: 1.6
Yeast gene YER175C, incubated two hours with chemical substance
  The level of expressed mRNA in the presence of chemical substance/The level of expressed mRNA in the absence of chemical substance: 1.1
Yeast gene YFL006W, incubated two hours with chemical substance
  The level of expressed mRNA in the presence of chemical substance/The level of expressed mRNA in the absence of chemical substance: 1.2
Yeast gene YFL010C, incubated two hours with chemical substance
  The level of expressed mRNA in the presence of chemical substance/The level of expressed mRNA in the absence of chemical substance: 1.4
Yeast gene YFL024C
  The level of expressed mRNA in the presence of chemical substance/The level of expressed mRNA in the absence of chemical substance: 0.6
Yeast gene YFL032W, incubated two hours with chemical substance
  The level of expressed mRNA in the presence of chemical substance/The level of expressed mRNA in the absence of chemical substance: 1.1
Yeast gene YGL037C, incubated two hours with chemical substance
  The level of expressed mRNA in the presence of chemical substance/The level of expressed mRNA in the absence of chemical substance: 3.9
Yeast gene YGL047W, incubated two hours with chemical substance
  The level of expressed mRNA in the presence of chemical substance/The level of expressed mRNA in the absence of chemical substance: 1.9
Yeast gene YGL053W, incubated two hours with chemical substance
  The level of expressed mRNA in the presence of chemical substance/The level of expressed mRNA in the absence of chemical substance: 1.3
Yeast gene YGL121C
  The level of expressed mRNA in the presence of chemical substance/The level of expressed mRNA in the absence of chemical substance: 6.1
Yeast gene YGL218W
  The level of expressed mRNA in the presence of chemical substance/The level of expressed mRNA in the absence of chemical substance: 0.1
Yeast gene YGR101W, incubated two hours with chemical substance
  The level of expressed mRNA in the presence of chemical substance/The level of expressed mRNA in the absence of chemical substance: 2.0
Yeast gene YGR110W
  The level of expressed mRNA in the presence of chemical substance/The level of expressed mRNA in the absence of chemical substance: 0.5
Yeast gene YGR130C, incubated two hours with chemical substance
  The level of expressed mRNA in the presence of chemical substance/The level of expressed mRNA in the absence of chemical substance: 0.8
Yeast gene YGR142W
  The level of expressed mRNA in the presence of chemical substance/The level of expressed mRNA in the absence of chemical substance: 2.3
Yeast gene YGR154C, incubated two hours with chemical substance
  The level of expressed mRNA in the presence of chemical substance/The level of expressed mRNA in the absence of chemical substance: 1.5
Yeast gene YGR221C, incubated two hours with chemical substance
  The level of expressed mRNA in the presence of chemical substance/The level of expressed mRNA in the absence of chemical substance: 0.5
Yeast gene YHR138C, incubated two hours with chemical substance
  The level of expressed mRNA in the presence of chemical substance/The level of expressed mRNA in the absence of chemical substance: 1.6
Yeast gene YHR199C, incubated two hours with chemical substance
  The level of expressed mRNA in the presence of chemical substance/The level of expressed mRNA in the absence of chemical substance: 1.9
Yeast gene YIL023C, incubated two hours with chemical substance
  The level of expressed mRNA in the presence of chemical substance/The level of expressed mRNA in the absence of chemical substance: 1.1
Yeast gene YIL041W, incubated two hours with chemical substance
  The level of expressed mRNA in the presence of chemical substance/The level of expressed mRNA in the absence of chemical substance: 1.4
Yeast gene YIL087C, incubated two hours with chemical substance
  The level of expressed mRNA in the presence of chemical substance/The level of expressed mRNA in the absence of chemical substance: 2.8
Yeast gene YIL089W
  The level of expressed mRNA in the presence of chemical substance/The level of expressed mRNA in the absence of chemical substance: 0.7
Yeast gene YJL057C, incubated two hours with chemical substance
  The level of expressed mRNA in the presence of chemical substance/The level of expressed mRNA in the absence of chemical substance: 2.0
Yeast gene YJL066C, incubated two hours with chemical substance
  The level of expressed mRNA in the presence of chemical substance/The level of expressed mRNA in the absence of chemical substance: 0.8
Yeast gene YJL082W, incubated two hours with chemical substance
  The level of expressed mRNA in the presence of chemical substance/The level of expressed mRNA in the absence of chemical substance: 1.0
Yeast gene YJL151C, incubated two hours with chemical substance
  The level of expressed mRNA in the presence of chemical substance/The level of expressed mRNA in the absence of chemical substance: 1.0
Yeast gene YJL152W, incubated two hours with chemical substance
  The level of expressed mRNA in the presence of chemical substance/The level of expressed mRNA in the absence of chemical substance: 1.0
Yeast gene YJL161W, incubated two hours with chemical substance
  The level of expressed mRNA in the presence of chemical substance/The level of expressed mRNA in the absence of chemical substance: 3.7
Yeast gene YJL171C, incubated two hours with chemical substance
  The level of expressed mRNA in the presence of chemical substance/The level of expressed mRNA in the absence of chemical substance: 2.2
Yeast gene YJR008W, incubated two hours with chemical substance
  The level of expressed mRNA in the presence of chemical substance/The level of expressed mRNA in the absence of chemical substance: 1.4
Yeast gene YJR054W, incubated two hours with chemical substance
  The level of expressed mRNA in the presence of chemical substance/The level of expressed mRNA in the absence of chemical substance: 0.7
Yeast gene YKL071W
  The level of expressed mRNA in the presence of chemical substance/The level of expressed mRNA in the absence of chemical substance: 40.3
Yeast gene YKL086W, incubated two hours with chemical substance
  The level of expressed mRNA in the presence of chemical substance/The level of expressed mRNA in the absence of chemical substance: 0.7
Yeast gene YKL151C, incubated two hours with chemical substance
  The level of expressed mRNA in the presence of chemical substance/The level of expressed mRNA in the absence of chemical substance: 2.3
